Test in all cases: NCI-60 cell line screen, 48 h
Experiment [1] has as its system DU-145 prostate.
The test system of experiment [2] is HS 578T breast.
Experiment [3] relates to LXFL 529 NSCLC.
In experiment [4] the test system is SNB-78 CNS.
Experiment [5] relates to KM20L2 colon.
For experiment [6], the system named is XF 498 CNS.
In experiment [7] the test system is DMS 114 small cell lung.
The subject of experiment [8] is MDA-N.

Where “and” joins values, the source holds several entries; their conditions need not be identical. Equal entries are not always repeated.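 Protocol summary: plate cells (96-well), add compound at 5 concentrations, incubate 48 h, interpolate endpoints linearly. Abbreviation: GI50, concentration required for 50% inhibition of growth. TGI: total growth inhibition.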

Take `CC1(C)C(=O)/C(=C\c2ccco2)C[C@]2(C)[C@H]3CC=C4[C@@H]5C[C@](C)(C(=O)O)CC[C@]5(C)CC[C@@]4(C)[C@]3(C)CC[C@@H]12`: in experiment [1], the GI50 is 9.87 µM and the TGI worked out at 24.2 µM. Also, in experiment [2], the GI50 was 18.4 µM and the TGI was greater than 100 µM.

For `CCc1ccc(C2=C(O)C(=O)C(c3ccc(CC)cc3)=C(O)C2=O)cc1`, in experiment [1], the GI50 is 2.81 µM and the TGI amounted to 10.6 µM. In experiment [2], the GI50 is 1.72 µM and the TGI was 6.58 µM.

As to `O=C1OCC2=Nc3cccc4cccc(c34)N12`, the TGI in experiment [1] and in experiment [2] was greater than 100 µM in each case.

For the compound `COc1cc2ccc3c4cc(OC)c(OCc5ccccc5)cc4cnc3c2cc1OC`, the TGI in experiment [3], in experiment [4], in experiment [5], in experiment [6] and in experiment [7] was greater than 100 µM in each case.

Turning to `CCCc1ccc(N=Cc2cc(OC)c(OC)c(OC)c2)cc1`, the TGI in experiment [3] is greater than 100 µM; in experiment [4], greater than 100 µM; in experiment [5], greater than 100 µM; in experiment [6], greater than 100 µM; in experiment [7] it was greater than 60.6 µM.

Consider `CC1=CC[C@@H]2C(C)(C)[C@@H](O)CC[C@@]2(C)[C@@H]1COc1ccc2ccc(=O)oc2c1`, for which, in experiment [1], the GI50 was 5.39 µM and the TGI was 17.8 µM. Further, in experiment [2], the GI50 is 3.29 µM and the TGI was determined as 23.4 µM.

With `O=c1c(OC/C(=N/O)c2ccccc2)c(-c2ccccc2)oc2ccccc12`, in experiment [1], the GI50 was 17.1 µM and the TGI is greater than 50 µM.

Take `Cc1cc(O)cc(C)c1/C=C/c1cncc(C(=O)N(C)C)c1`: in experiment [1], the GI50 is greater than 25 µM and the TGI is greater than 25 µM. In addition, in experiment [2], the GI50 was greater than 25 µM and the TGI is greater than 25 µM.

`ClCCn1cnc2c(SCc3ccccc3)ncnc21`: in experiment [1], the GI50 is 3.82 µM and the TGI was greater than 100 µM. For the same compound, in experiment [2], the GI50 was 15.4 µM and the TGI was greater than 100 µM.

For `OCC1OC(N2C=C(c3nc4ccccc4s3)C3C=CC=CC32)C(O)C1O` (centres undefined), the GI50 is 8.2 µM in experiment [1] and 14.2 µM in experiment [2]. Besides, the TGI is 25.8 µM in experiment [1] and greater than 50 µM in experiment [2].

As for `Cc1ccc(-n2c(C)nc3c2C(=O)c2ccccc2C3=O)cc1`, the TGI in experiment [3], in experiment [4], in experiment [5] and in experiment [6] was greater than 100 µM in each case.

With `OC1CCC(Oc2cccc3cnc(Nc4ccc5nc[nH]c5c4)nc23)CC1` (centres undefined), in experiment [1], the GI50 was 0.246 µM and the TGI was found to be 17.2 µM. Moreover, in experiment [2], the GI50 is 0.728 µM and the TGI came out at 8.32 µM.

With `O=C(N=Nc1c(O)[nH]c2ccccc12)c1ccccc1O`, the TGI in experiment [3], in experiment [4], in experiment [5] and in experiment [7] was greater than 100 µM throughout.

As to `COc1ccc([N+](=O)[O-])c2c(NCC(O)CO)ccnc12` (centres undefined), the TGI in experiment [1], in experiment [8] and in experiment [2] was greater than 100 µM throughout.

As to `O=C1C=C(c2cc(Br)c(O)c(Br)c2)/C(=C/c2cc(Br)c(O)c(Br)c2)O1`, the GI50 is 31.7 µM in experiment [1], 33 µM in experiment [8] and 33.9 µM in experiment [2]. In addition, the TGI in experiment [1], in experiment [8] and in experiment [2] was greater than 75 µM each time.

Turning to `CC1=C2N3C[C@@H](n4c(=O)n(C)c(=O)n43)C23CCC1n1c(=O)n(C)c(=O)n13`, the TGI in experiment [3] was greater than 100 µM; in experiment [4], greater than 100 µM; in experiment [5], greater than 100 µM; in experiment [6], greater than 100 µM; in experiment [7], 76.3 µM.

For `CC(C)(C)N=CN1CCC(C(c2ccccc2)c2ccccc2)CC1`, the TGI in experiment [4] was greater than 100 µM; in experiment [5], 32.2 µM; in experiment [6], greater than 100 µM; in experiment [7] it was greater than 100 µM.

With `Nc1ncnc2c1ncn2C1OC(C(=O)O)C(O)C1O` (centres undefined), the TGI in experiment [1], in experiment [8] and in experiment [2] was greater than 100 µM in each case.

In the case of `Cc1ccc2c(c1)sc(-c1ccc(N(C)C)cc1)[n+]2C`, in experiment [1], the GI50 is 1.95 µM and the TGI was 32 µM. Besides, in experiment [2], the GI50 is 6.39 µM and the TGI was greater than 87.7 µM.

As for `Cn1cnc([N+](=O)[O-])c1Sc1ncnc2nc[nH]c12`, in experiment [1], the GI50 was 3.03 µM and 4.36 µM; the TGI is greater than 100 µM. Also, in experiment [2], the GI50 was 4.8 µM and 3.86 µM; the TGI is greater than 100 µM.

For `O=[N+]([O-])/C=C\c1ccc2c(c1)OCO2`, in experiment [1], the GI50 was 3.07 µM and the TGI came to 10.2 µM. For the same compound, in experiment [2], the GI50 was 3.47 µM and the TGI is 19.9 µM.

For the compound `CCC(=O)N1C/C(=C/c2ccc(OC)cc2)C(=O)/C(=C/c2ccc(OC)cc2)C1`, the GI50 in experiment [1] was 2.91 µM; in experiment [2], 2.35 µM. The values for the TGI in experiment [1] and in experiment [2] were 10.6 µM and 7.47 µM, respectively.

With `Cc1ccc(S(=O)(=O)NCCN2c3nc4ccccc4cc3Sc3cc4ccccc4nc32)cc1`, in experiment [1], the GI50 is greater than 100 µM and the TGI is greater than 100 µM. For the same compound, in experiment [2], the GI50 was 2.43 µM and the TGI worked out at 23.2 µM.

For the compound `CC(C)(C)C([O-])=C1C(=O)c2ccccc2C1=O.CC(C)(C)C([O-])=C1C(=O)c2ccccc2C1=O.CC[O-].CC[O-].[Ti+4]`, the GI50 in experiment [3] was 39.9 µM; in experiment [4], 28.4 µM; in experiment [5], 29.2 µM. Besides, the TGI in experiment [3] was greater than 100 µM; in experiment [4], 93.8 µM; in experiment [5] it was greater than 100 µM.

On to `Cc1c2ncccc2c(C)c2c1[nH]c1ccccc12`, for which the TGI was 24.8 µM in experiment [3], 36 µM in experiment [4], 22.6 µM in experiment [5] and 25.3 µM in experiment [6].

Take `Cc1ccc(S(=O)(=O)ON/N=C2/C3OC3[C@@H]3CCCC[C@H]23)cc1` (some centres undefined): the TGI in experiment [3], in experiment [5] and in experiment [6] was greater than 100 µM throughout.

(Values after PubChem BioAssay (NCI).)
